Tested on: normal, 18 h fasting, glucose loaded & streptozotocin induced hyperglycaemic rats
Assay: hypoglycaemic activity (blood sugar) in rats after oral dosing
Type: in vivo
Method: 1 kg of A. roseum (whole plant) is shade dried and powdered. The powdered plant material was extracted with ethyl alcohol (5 litres) for 20 hours. The alcohol extract was vacuum dried. The yield was 91 gms. The dried alcoholic extract was macerated successively with hexane and chloroform to give 8.2 gms. and 39.3 gms. of the extracts respectively. A flavonoid glycoside (230 mgs) was isolated from the chloroform extract by repeated column chromatography over silica gel of mesh size 60-120 micron. […] The onset of effect within ½ h and the effect lasted for more than five hours. The fall of blood sugar recorded with above dose was 26 mg/dl (n=24) as compared to fall of 17 & 23 mg/dl recorded with tolbutamide, 50 mg/kg p.o. (n=9) and glipizide, 0.5 mg/kg p.o. (n=8) respectively in 18 h fasting rats.

Compound | fall of blood sugar (50 mg/kg p.o., 18 h fasting rats (n=9)) [mg/dL] | fall of blood sugar (0.5 mg/kg p.o., 18 h fasting rats (n=8)) [mg/dL]
CCCCNC(=O)NS(=O)(=O)c1ccc(C)cc1 [tolbutamide] | 17 | 
Cc1cnc(C(=O)NCCc2ccc(S(=O)(=O)NC(=O)NC3CCCCC3)cc2)cn1 [glipizide] |  | 23

— patent publication US6869625B2, “Method of treating diabetes using plant argyrolobium roseum extract, and a process for the isolation of extract from the said plant” (Council of Scientific and Industrial Research, priority 2001, dated 2005)
